# From patent publication US20090215775A1, “Sulphonamido-Substituted Cyclohexyl Sulphones for Treatment of Cancer” (priority 2005, published 2009)
# Tested on: Cells expressing Notch (ALL-SIL, DND-41, HPB-ALL or TALL-1)
# Test: Assay for Cell Cycle Arrest (propidium iodide, FACS)
# Format: cell-based
# Details: concentrations up to 10 μM; incubation typically 4-8 days; in comparison to untreated controls
# Description: Cells expressing Notch (ALL-SIL, DND-41, HPB-ALL or TALL-1) (Weng et al, Science, 306 (2004), 269-71) are incubated in the presence or absence of a compound of the instant invention (e.g. the compound of Example 47 below) at concentrations up to 10 μM. At the end of the incubation (typically 4-8 days), the cells are collected, fixed in 70% ethanol on ice for >2 hours, washed, then labelled for 15 min at 37° C. with propidium iodide (0.2 mg/ml) (PI) in the presence of 0.1% Triton X100 and 0.2 mg/ml RNase and subjected to FACS analysis.
structure (smiles),measurement,value
"O=S(=O)(N[C@H]1CC[C@@](c2cc(F)ccc2F)(S(=O)(=O)c2ccc(Cl)cc2)CC1)C(F)(F)F [Example 47, trifluoromethanesulfonic acid, N-[4-(4-chlorobenzenesulfonyl)-4-(2,5-difluorophenyl)-cyclohexyl]-amide]",G2- and S-phase populations (FACS analysis),severe loss of G2- and S-phase populations
